US11590453B2, “Membrane disinfectant” (Diversey, Inc., priority 2017, dated 2023)

Assay: pH of test solutions
Type: physicochemical

Measured: pH

O=[N+]([O-])O [Nitric Acid Solution, Nitric Acid]
2.00: solution of membrane compatibility test, Table 6 | solution of membrane compatibility test, Table 8 | solution of salt retention test, Table 7
